Measured values reported in patent US20240182422A1, “PREPARATION METHOD OF QUINOLINE DERIVATIVE COMPOUNDS” (ABIVAX, priority 2021, published 2024).

Key:
[1] = Particle size distribution measurement (WET method, laser diffraction, Mastersizer); format: physicochemical; conditions: PSD wet method, dispersant demineralised water, Triton X100
From the text: Particle size distribution (PSD), summarized by D10, D50 and D90 values, were obtained by using the WET method, the details of which are as follows: • Material used: • Equipment: Mastersizer 300 (hydro MV) • Dispersant: demineralised water • Surfactant: Triton X100 • No saturation • Operational parameters: • optical model: Particles type (MS3000 only) no-spherical • Mie: • refractive index of particles: 1.443 • absorption index of particles: 0.1 • refractive index of the dispersant: 1.33 • Measurement: • Measurement time: 10 seconds • Measurement time of the background: 10 seconds • Stirrer speed: 1200 rpm +/−400 • Obscuration range: 5-19% • Delay time measurement: 1-5 minutes • Model: standard • Analysis precision: normal • Sample preparation: • Weight about 100 mg of product in a glass beaker • Add 2-4 drops of surfactant • Complete with the dispersant until the 20 mL mark of the 50 mL graduated beaker • Shake for 3 seconds to 60 seconds • Put in the external ultrasound cell • Sonication duration: 2-3minutes
After the milling step 5, the milled sample thus obtained from example 4 was characterized by measurement of its particle size distribution (see table 3 below) according to the method as defined above.
For comparison purposes, the measurement of the particle size distribution has also been carried out for the native 8-chloro-N-(4-(trifluoromethoxy)phenyl)quinolin-2-amine (Form I) obtained from step 4 of example 4 above (i.e. product obtained from example 4 before milling).

[2] = USP <711> / Ph. Eur. 2.9.3 pharmacopeial dissolution profile (apparent dissolution test, paddle apparatus); format: physicochemical; conditions: for solubility (percentage dissolved) at 45 min: 50 mg drug substance, 900 mL 0.25% CTAB in 0.1 M HCl, paddle USP type II 100 rpm
Method: Pharmacopeial (USP <711>, Ph. Eur. 2.9.3) dissolution profiles of the drug substance were established.
A dissolution experiment evaluates the rate and extent that a compound forms a solution under carefully controlled conditions and using paddle dissolution apparatus fulfilling USP <711>, Ph. Eur. 2.9.3 requirements.
The dissolution profiles of 50 mg from a native ABX464 and one milled ABX 464 (8000 rpm) drug substance (DS) in the dissolution media have been compared.
The dissolution conditions and materials were as follows: • Equipment • Class A glassware • Analytical scale • Automatic pipette • UPLC system consisting of a binary or quaternary pump, an automated injector, a thermostated column oven, and a UV or DAD detector controlled by the Waters Empower® software • AT 7 smart (Sotax) or equivalent dissolution apparatus with USP type II paddle • Chemicals • water (dissolution medium) Demineralized water purified by Milli_Q Millipore (type II) • Demineralized water purified by Milli_Q Millipore • syringe filter Spartan 30 mm HPLC-Certified syringe Filter, 0.2 μm, RC (regenerated cellulose) • Acetonitrile Biosolve (UPLC grade) (ACN) • Cetyl trimethylammonium bromide (CTAB) • Hydrochloric acid (HCl) 1M (AVS tritinorm) • Formic acid (LCMS grade) • Chromatographic conditions • Column: Acquity UPLC BEH C18, 2.1 mm ID*50 mm, 1.7 μm pore size or equivalent • Mobile phase A: 0.1% (v/v) Formic acid in water • Mobile phase B: ACN • Isocratic mode 35% A/65% B • Flow rate 0.3 mL/min • Analytical run time: 5 min • Volume injection: 5 μL • Detection: UV at 220 nm • Autosampler: room temperature • Column temperature: 40° C. • Needle wash: Water/ACN (50/50 v/v) • Diluent • Dissolution medium: 0.25% CTAB in 0.1 M HCl. Transfer 25 g of CTAB into a 10 000 mL volumetric flask, add 1 000 mL of HCl 1M and dilute to volume with water (different amounts and volumes may be used as long as the final concentration remains the same) • Solutions
Accurately weight 22.2 mg of the drug substance into a 100 mL volumetric flask, dissolve in about 5 mL ACN and dilute to volume with diluent. • Dissolution conditions • Dissolution medium: 0.25% CTAB in 0.1 M HCl • Temperature: 37° C. +/−0.5° C. • Agitation: 100 rpm +/−1 rpm • Type of agitation: Paddle (USP type II) • Volume of dissolution medium: 900 mL • Sampling time: 5, 10, 15, 30, 45, 60, 75 and 90 min • Sampling volume 5 ml (discard the first 3 ml) • Test on 6 vessels • place the sample (50 mg) into each dissolution vessel
The non-corrected dissolved percentages were calculated as follows: […]
The corrected dissolved percentage were calculated as follows: […]

[3] = listed as Native (not milled) compound

Row | Particle size distribution D10 [1] [μm] | Particle size distribution D50 [1] [μm] | Particle size distribution D90 [1] [μm] | Particle size distribution D10 ([1]; listed as milled ABX464) [μm] | Particle size distribution D50 ([1]; listed as milled ABX464) [μm] | Particle size distribution D90 ([1]; listed as milled ABX464) [μm] | solubility (percentage dissolved) at 45 min ([2]; 37° C., 45 min) [%] | solubility compared to the native compound (FIG. 2 dissolution profile) ([2]; milled at 8000 rpm vs native, 0.25% CTAB in 0.1 M HCl, 37° C.) | increase of solubility (percentage dissolved) of milled compound compared to the native compound at 45 min ([2]; same dissolution conditions, 45 min, milled (8000 rpm) vs native) | Particle size distribution D10 [1, 3] [μm] | Particle size distribution D50 [1, 3] [μm] | Particle size distribution D90 [1, 3] [μm] | Structure (SMILES)
1 | 6.8 | 50.0 | 122.0 | 6.8 | 50.0 | 122.0 | 95.4 | improved solubility | about 38.1% |  |  |  | FC(F)(F)Oc1ccc(Nc2ccc3cccc(Cl)c3n2)cc1 [milled compound, 8-chloro-N-(4-(trifluoromethoxy)phenyl)quinolin-2-amine]
2 |  |  |  |  |  |  | 57.3 |  |  | 24.5 | 164.0 | 444.0 | FC(F)(F)Oc1ccc(Nc2ccc3cccc(Cl)c3n2)cc1 [native compound, 8-chloro-N-(4-(trifluoromethoxy)phenyl)quinolin-2-amine]
